Experimental findings from patent publication US20240024520A1, “AUTONOMOUS KNOB DOMAIN PEPTIDES” (UCB BIOPHARMA SRL, priority 2020, published 2024) are described below.

Where two headings read alike, the source gives them in different places. Bridge positions count the residues as written; N and C are the ends. Peptide text beside a SMILES is read from it.

The target of this test is C5 (Homo sapiens, UniProt P01031). Briefly: Biacore multi-cycle kinetics on human C5. The format is binding. The conditions noted are these: for mean stoichiometric ratio: measured Rmax divided by theoretical Rmax; for koff: read-out: mean Koff; for kon: read-out: mean Kon. Here is the method: Binding of knob domain peptides to human C5 was measured by SPR, using a multi-cycle kinetics method as follows:
Kinetics were measured using a Biacore 8K (GE Healthcare) with a CM5 chip, which was prepared as follows: EDC/NHS was mixed at 1:1 ratio (flow rate, 10 μL/min; contact time, 30 seconds), human C5 protein at 1 μg/mL in pH 4.5 sodium-acetate buffer, were injected over flow cell one only (flow rate, 10 μL/min; contact time, 60 seconds). Final immobilization levels in the range of 2000-3000 response units (RU) were obtained, to yield theoretical Rmax values of ˜50-60 RU. Serial dilutions of peptide were prepared in HBS-EP buffer and injected (flow rate, 30 μL/min; contact time, 240 seconds; dissociation time, 6000 seconds). After each injection, the surface was regenerated with two sequential injections of 2M MgCl2 (flow rate, […]; contact time, 30 seconds). Binding to the reference surface was subtracted, and the data were fitted to a single site binding model, using Biacore evaluation software.

[1] abbreviates: multi-cycle kinetics, n = 3 experiments.

Chain of C5 (P01031 19-1676): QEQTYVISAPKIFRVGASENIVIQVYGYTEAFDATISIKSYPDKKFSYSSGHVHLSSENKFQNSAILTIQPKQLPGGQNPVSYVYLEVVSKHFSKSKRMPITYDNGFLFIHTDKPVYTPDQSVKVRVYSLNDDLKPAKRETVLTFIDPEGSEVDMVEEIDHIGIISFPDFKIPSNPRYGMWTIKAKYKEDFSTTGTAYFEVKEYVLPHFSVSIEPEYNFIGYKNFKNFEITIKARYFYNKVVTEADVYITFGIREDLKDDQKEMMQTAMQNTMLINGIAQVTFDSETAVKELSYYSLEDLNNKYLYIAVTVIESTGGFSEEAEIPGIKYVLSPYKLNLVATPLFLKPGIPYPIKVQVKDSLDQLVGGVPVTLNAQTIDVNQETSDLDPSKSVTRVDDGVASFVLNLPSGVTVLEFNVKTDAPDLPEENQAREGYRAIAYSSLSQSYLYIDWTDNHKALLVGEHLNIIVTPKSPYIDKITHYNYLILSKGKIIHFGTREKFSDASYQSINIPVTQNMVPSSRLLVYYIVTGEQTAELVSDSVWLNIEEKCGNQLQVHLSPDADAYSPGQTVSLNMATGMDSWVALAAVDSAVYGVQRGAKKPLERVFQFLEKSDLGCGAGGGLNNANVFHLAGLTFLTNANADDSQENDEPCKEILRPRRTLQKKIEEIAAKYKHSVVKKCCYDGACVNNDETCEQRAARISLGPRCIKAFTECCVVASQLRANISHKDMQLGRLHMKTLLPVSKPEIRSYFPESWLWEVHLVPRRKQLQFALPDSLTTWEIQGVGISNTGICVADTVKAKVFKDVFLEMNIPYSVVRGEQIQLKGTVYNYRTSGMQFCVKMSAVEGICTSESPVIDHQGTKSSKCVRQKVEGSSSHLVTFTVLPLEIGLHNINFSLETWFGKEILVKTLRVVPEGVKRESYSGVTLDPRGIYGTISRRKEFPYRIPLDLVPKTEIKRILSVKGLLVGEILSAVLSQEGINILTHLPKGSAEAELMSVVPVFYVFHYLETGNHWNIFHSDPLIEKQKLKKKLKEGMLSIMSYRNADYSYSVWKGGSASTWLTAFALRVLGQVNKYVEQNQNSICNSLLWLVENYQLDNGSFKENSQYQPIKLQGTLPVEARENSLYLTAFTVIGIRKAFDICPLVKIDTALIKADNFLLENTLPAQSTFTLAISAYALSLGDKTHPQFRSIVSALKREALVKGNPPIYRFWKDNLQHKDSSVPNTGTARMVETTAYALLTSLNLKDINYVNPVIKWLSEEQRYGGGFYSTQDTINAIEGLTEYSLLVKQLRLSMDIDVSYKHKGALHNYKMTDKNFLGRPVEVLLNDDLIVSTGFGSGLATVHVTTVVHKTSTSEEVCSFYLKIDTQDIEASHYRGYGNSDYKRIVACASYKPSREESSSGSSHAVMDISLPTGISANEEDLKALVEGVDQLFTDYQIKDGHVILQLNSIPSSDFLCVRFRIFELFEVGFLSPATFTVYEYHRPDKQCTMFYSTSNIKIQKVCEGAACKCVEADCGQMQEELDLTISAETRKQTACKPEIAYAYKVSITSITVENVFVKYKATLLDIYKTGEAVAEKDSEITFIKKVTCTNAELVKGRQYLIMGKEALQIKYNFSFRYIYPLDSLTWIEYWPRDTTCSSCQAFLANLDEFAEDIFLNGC

Broadly, the koff is the rate constant with which the complex falls apart. What is called kon is the rate constant with which the complex forms. In the case of `CC[C@H](C)[C@@H]1NC(=O)[C@H](C)NC(=O)[C@H](C(C)C)NC(=O)CNC(=O)[C@@H]2CSSC[C@@H](C(=O)NCC(=O)N[C@@H](Cc3c[nH]cn3)C(=O)N[C@@H](C)C(=O)N[C@@H](CC(C)C)C(=O)N[C@@H](CC(N)=O)C(=O)N[C@@H](CO)C(=O)NCC(=O)N3CCC[C@H]3C(=O)N[C@@H](CC(N)=O)C(=O)N[C@H](C(=O)N[C@@H](CO)C(=O)N3CCC[C@H]3C(=O)N[C@@H](Cc3ccc(O)cc3)C(=O)N[C@H](C(=O)N[C@@H](CO)C(=O)N[C@H](C(=O)O)[C@@H](C)O)C(C)C)[C@@H](C)CC)NC(=O)CNC(=O)[C@H](Cc3c[nH]c4ccccc34)NC(=O)[C@H](CCCNC(=N)N)NC(=O)CNC(=O)[C@H](CSSC[C@H](NC(=O)[C@@H](N)[C@@H](C)O)C(=O)N3CCC[C@H]3C(=O)N[C@@H](CCC(=O)O)C(=O)NCC(=O)N[C@@H](Cc3c[nH]c4ccccc34)C(=O)N[C@@H](CO)C(=O)N[C@@H](CCC(=O)O)C(=O)N2)NC(=O)[C@H](CCC(=O)O)NC(=O)[C@H](Cc2ccc(O)cc2)NC(=O)CNC(=O)[C@H](Cc2ccc(O)cc2)NC1=O` [K92chemFE F26A] (H-TCPEGWSECGVAIYGYECGRWGCGHALNSGPNISPYVST-OH; disulfide 2-18, 9-23; N-terminus assumed), the koff was determined as 0.00328 s⁻¹ and the kon was 184000 M⁻¹ s⁻¹. Where the note is “n = 3 experiments”, the mean stoichiometric ratio was determined as 0.65.

With `CC[C@H](C)[C@@H]1NC(=O)[C@H](C)NC(=O)[C@H](C(C)C)NC(=O)CNC(=O)[C@@H]2CSSC[C@@H](C(=O)NCC(=O)N[C@@H](Cc3c[nH]cn3)C(=O)N[C@@H](Cc3ccccc3)C(=O)N[C@@H](CC(C)C)C(=O)N[C@@H](CC(N)=O)C(=O)N[C@@H](CO)C(=O)NCC(=O)N3CCC[C@H]3C(=O)N[C@@H](CC(N)=O)C(=O)N[C@H](C(=O)N[C@@H](CO)C(=O)N3CCC[C@H]3C(=O)N[C@@H](Cc3ccc(O)cc3)C(=O)N[C@H](C(=O)N[C@@H](CO)C(=O)N[C@H](C(=O)O)[C@@H](C)O)C(C)C)[C@@H](C)CC)NC(=O)CNC(=O)[C@H](Cc3c[nH]c4ccccc34)NC(=O)[C@H](CCCNC(=N)N)NC(=O)CNC(=O)[C@H](CSSC[C@H](NC(=O)[C@@H](N)[C@@H](C)O)C(=O)N3CCC[C@H]3C(=O)N[C@@H](CCC(=O)O)C(=O)NCC(=O)N[C@@H](C)C(=O)N[C@@H](CO)C(=O)N[C@@H](CCC(=O)O)C(=O)N2)NC(=O)[C@H](CCC(=O)O)NC(=O)[C@H](Cc2ccc(O)cc2)NC(=O)CNC(=O)[C@H](Cc2ccc(O)cc2)NC1=O` [K92chemFE W6A] (H-TCPEGASECGVAIYGYECGRWGCGHFLNSGPNISPYVST-OH; disulfide 2-18, 9-23; N-terminus assumed), for the setting “n = 3 experiments”, the mean stoichiometric ratio came to 0.60. Under setting [1], the koff is 0.00157 s⁻¹ and the kon was determined as 7980 M⁻¹ s⁻¹.

For `CC[C@H](C)[C@@H]1NC(=O)[C@H](C)NC(=O)[C@H](C(C)C)NC(=O)CNC(=O)[C@@H]2CSSC[C@@H](C(=O)NCC(=O)N[C@@H](Cc3c[nH]cn3)C(=O)N[C@@H](Cc3ccccc3)C(=O)N[C@@H](CC(C)C)C(=O)N[C@@H](CC(N)=O)C(=O)N[C@@H](CO)C(=O)NCC(=O)N3CCC[C@H]3C(=O)N[C@@H](CC(N)=O)C(=O)N[C@H](C(=O)N[C@@H](CO)C(=O)N3CCC[C@H]3C(=O)N[C@@H](Cc3ccc(O)cc3)C(=O)N[C@H](C(=O)N[C@@H](CO)C(=O)N[C@H](C(=O)O)[C@@H](C)O)C(C)C)[C@@H](C)CC)NC(=O)CNC(=O)[C@H](C)NC(=O)[C@H](CCCNC(=N)N)NC(=O)CNC(=O)[C@H](CSSC[C@H](NC(=O)[C@@H](N)[C@@H](C)O)C(=O)N3CCC[C@H]3C(=O)N[C@@H](CCC(=O)O)C(=O)NCC(=O)N[C@@H](Cc3c[nH]c4ccccc34)C(=O)N[C@@H](CO)C(=O)N[C@@H](CCC(=O)O)C(=O)N2)NC(=O)[C@H](CCC(=O)O)NC(=O)[C@H](Cc2ccc(O)cc2)NC(=O)CNC(=O)[C@H](Cc2ccc(O)cc2)NC1=O` [K92chemFE W21A] (H-TCPEGWSECGVAIYGYECGRAGCGHFLNSGPNISPYVST-OH; disulfide 2-18, 9-23; N-terminus assumed), the mean stoichiometric ratio (n = 3 experiments) worked out at 0.62. Moreover, under setting [1], the koff was 0.00848 s⁻¹ and the kon was determined as 17400 M⁻¹ s⁻¹.

Turning to `CC[C@H](C)[C@@H]1NC(=O)[C@H](C)NC(=O)[C@H](C(C)C)NC(=O)CNC(=O)[C@@H]2CSSC[C@@H](C(=O)NCC(=O)N[C@@H](Cc3c[nH]cn3)C(=O)N[C@@H](Cc3ccccc3)C(=O)N[C@@H](CC(C)C)C(=O)N[C@@H](CC(N)=O)C(=O)N[C@@H](CO)C(=O)NCC(=O)N3CCC[C@H]3C(=O)N[C@@H](CC(N)=O)C(=O)N[C@H](C(=O)N[C@@H](CO)C(=O)N3CCC[C@H]3C(=O)N[C@@H](Cc3ccc(O)cc3)C(=O)N[C@H](C(=O)N[C@@H](CO)C(=O)N[C@H](C(=O)O)[C@@H](C)O)C(C)C)[C@@H](C)CC)NC(=O)CNC(=O)[C@H](Cc3c[nH]cn3)NC(=O)[C@H](CCCNC(=N)N)NC(=O)CNC(=O)[C@H](CSSC[C@H](NC(=O)[C@@H](N)[C@@H](C)O)C(=O)N3CCC[C@H]3C(=O)N[C@@H](CCC(=O)O)C(=O)NCC(=O)N[C@@H](Cc3c[nH]c4ccccc34)C(=O)N[C@@H](CO)C(=O)N[C@@H](CCC(=O)O)C(=O)N2)NC(=O)[C@H](CCC(=O)O)NC(=O)[C@H](Cc2ccc(O)cc2)NC(=O)CNC(=O)[C@H](Cc2ccc(O)cc2)NC1=O` [K92chemFE W21H] (H-TCPEGWSECGVAIYGYECGRHGCGHFLNSGPNISPYVST-OH; disulfide 2-18, 9-23; N-terminus assumed), the off-rate constant (koff) came to 0.000612 s⁻¹ and the kon was 425000 M⁻¹ s⁻¹. Also, the mean stoichiometric ratio (n = 3 experiments) came to 0.69.

As to `CC[C@H](C)[C@@H]1NC(=O)[C@H](C)NC(=O)[C@H](C(C)C)NC(=O)CNC(=O)[C@@H]2CSSC[C@@H](C(=O)NCC(=O)N[C@@H](Cc3c[nH]cn3)C(=O)N[C@@H](Cc3ccccc3)C(=O)N[C@@H](CC(C)C)C(=O)N[C@@H](CC(N)=O)C(=O)N[C@@H](CO)C(=O)NCC(=O)N3CCC[C@H]3C(=O)N[C@@H](CC(N)=O)C(=O)N[C@H](C(=O)N[C@@H](CO)C(=O)N3CCC[C@H]3C(=O)N[C@@H](Cc3ccc(O)cc3)C(=O)N[C@H](C(=O)N[C@@H](CO)C(=O)N[C@H](C(=O)O)[C@@H](C)O)C(C)C)[C@@H](C)CC)NC(=O)CNC(=O)[C@H](Cc3c[nH]c4ccccc34)NC(=O)[C@H](CCCNC(=N)N)NC(=O)CNC(=O)[C@H](CSSC[C@H](NC(=O)[C@@H](N)[C@@H](C)O)C(=O)N3CCC[C@H]3C(=O)N[C@@H](CCC(=O)O)C(=O)NCC(=O)N[C@@H](Cc3c[nH]c4ccccc34)C(=O)N[C@@H](CO)C(=O)N[C@@H](CCC(=O)O)C(=O)N2)NC(=O)[C@H](CCC(=O)O)NC(=O)[C@H](Cc2ccc(O)cc2)NC(=O)CNC(=O)[C@H](C)NC1=O` [K92chemFE Y14A] (H-TCPEGWSECGVAIAGYECGRWGCGHFLNSGPNISPYVST-OH; disulfide 2-18, 9-23; N-terminus assumed), the mean stoichiometric ratio (n = 3 experiments) is 0.41. Moreover, under setting [1], the koff was found to be 0.0001 s⁻¹ and the kon is 27200 M⁻¹ s⁻¹.

As to `CC[C@H](C)[C@@H]1NC(=O)[C@H](C)NC(=O)[C@H](C(C)C)NC(=O)CNC(=O)[C@@H]2CSSC[C@@H](C(=O)NCC(=O)N[C@@H](Cc3c[nH]cn3)C(=O)N[C@@H](Cc3ccccc3)C(=O)N[C@@H](CC(C)C)C(=O)N[C@@H](CC(N)=O)C(=O)N[C@@H](CO)C(=O)NCC(=O)N3CCC[C@H]3C(=O)N[C@@H](CC(N)=O)C(=O)N[C@H](C(=O)N[C@@H](CO)C(=O)N3CCC[C@H]3C(=O)N[C@@H](Cc3ccc(O)cc3)C(=O)N[C@H](C(=O)N[C@@H](CO)C(=O)N[C@H](C(=O)O)[C@@H](C)O)C(C)C)[C@@H](C)CC)NC(=O)CNC(=O)[C@H](Cc3c[nH]c4ccccc34)NC(=O)[C@H](CCCNC(=N)N)NC(=O)CNC(=O)[C@H](CSSC[C@H](NC(=O)[C@@H](N)[C@@H](C)O)C(=O)N3CCC[C@H]3C(=O)N[C@@H](CCC(=O)O)C(=O)NCC(=O)N[C@@H](Cc3c[nH]c4ccccc34)C(=O)N[C@@H](CO)C(=O)N[C@@H](CCC(=O)O)C(=O)N2)NC(=O)[C@H](CCC(=O)O)NC(=O)[C@H](C)NC(=O)CNC(=O)[C@H](Cc2ccc(O)cc2)NC1=O` [K92chemFE Y16A] (H-TCPEGWSECGVAIYGAECGRWGCGHFLNSGPNISPYVST-OH; disulfide 2-18, 9-23; N-terminus assumed), the mean stoichiometric ratio (n = 3 experiments) is recorded as 0.66. Moreover, under setting [1], the off-rate (koff) stood at 0.786 s⁻¹ and the kon came out at 1.56e+07 M⁻¹ s⁻¹.

In the case of “K92 chemFE W21H: W21H mutant of K92chemFE (TCPEGWSECGVAIYGYECGRHGCGHFLNSGPNISPYVST)”, for the setting “chemical knob domains and variants, result in words”, the “binding to human C5” value is “much-lower loss of affinity”.
